# Results from US20110212909A1, “Use of Ginsenoside Compound K in the Preparation of a Medicament for the Prevention and Treatment of Atherosclerosis” (priority 2008, published 2011).
# Marks after values point to notes of the source that are not given here.
# How the values were obtained:
# CD36 mRNA = assay: Real-time quantitative PCR of CD36 mRNA in foam cells; format: cell-based; settings: 25 μM, rat foam cells
# Protocol: FIG. 1 provides effects of a ginsenoside compound K (C-K, 25 μM) and pyrrolidine dithiocarbamate (PDTC, 25 μM) on the foam cell CD36 mRNA expression. a: P<0.05, vs foam cell group; b: P<0.05, vs PDTC. PDTC (25 μM) C-K (25 μM) (n=5).
# (1) Material and reagents (the same as Example 2).
# (§1) (2) real-time quantitative PCR analysis (a reference method: Zhang Yiguan, Li Xiaohui, Fan Jishan, Zhang Haigang, Li Shuhui, Liao Wenqiang, Pang Yan, Jia Yi. Total panax notoginsenosides suppress atherosclerosis formation in rats by means of antiinflammatory and blood fat regulating action. Progress in Modern Biomedicine. 2007, 27(11): 1601-1607).
# (§2) Data was expressed as x±s, variance analysis were carried out between groups by SPSS 13.0 software.
# perilipin protein = assay: Protein expression of perilipin in foam cells; format: cell-based; settings: 25 μM, rat foam cells
# Protocol: FIG. 3 provides effects of a ginsenoside compound K (C-K, 25 μM) and pyrrolidine dithiocarbamate (PDTC, 25 μM) on the protein expression of perilipin in foam cell. a: P<0.01, vs foam cell group PDTC (25 μM) C-K (25 μM) (n=5).
# (§3) (1) Material and reagents (the same as Examples 2).
# as §2
# perilipin mRNA = assay: Real-time quantitative PCR of perilipin mRNA in foam cells; format: cell-based; settings: 25 μM, rat foam cells
# Protocol: FIG. 2 provides effects of a ginsenoside compound K (C-K, 25 μM) and pyrrolidine dithiocarbamate (PDTC, 25 μM) on the foam cell perilipin mRNA expression.
# a: P<0.05, vs. foam cells group. PDTC (25 μM) C-K (25 μM) (n=5).
# as §3
# as §1, with “27 (11):” for “27(11):”
# as §2
# ABCA1 mRNA = assay: Real-time quantitative PCR of ABCA1 mRNA in foam cells; format: cell-based; settings: 25 μM, rat foam cells
# Protocol: FIG. 4 provides effects of a ginsenoside compound K (C-K, 25 μM) and pyrrolidine dithiocarbamate (PDTC, 25 μM) on the foam cell ABCA1 mRNA expression. a: P<0.05, vs foam cell group. PDTC (25 μM) C-K (25 μM) (n=5).
# as §3
# as §1, with “27 (11):” for “27(11):”
# as §2
# [1] = tested on: macrophage-derived foam cells of rat abdominal cavity; assay: Assay of amount of TC and CE in ox-LDL induced macrophage-derived foam cells; format: cell-based
# Protocol: 1. Experiment animal: SD rats, male, 200-250 g, bought from the third Military Medical University Experiment Animal Center.
# 2. Reagents: RPMI 1640 culture medium free of phenol red bought from Invitrogen company; LDL (115 mg/mL) bought from Peking Union Medical College; total cholesterol kit and free cholesterol kit bought from Shanghai Mind Bioengineering Limited Company; ginsenoside compound K (hereinafter being called C-K for short. White powders, purity 99%), provided by Kunming Nuowei Jinshen Bioengineering limited company supply (batch number: NTGA070521, details see China invention patent 200710066011. X “a method of preparing rare ginsenoside compound K by streptomycete fermentation of Sanchi saponins”).
# LDL was placed into PBS comprising 10 μM Cu^2+, dialysed at 37° C. for 12 h, then was placed into PBS comprising 0.01% EDTA, and dialysed at 4° C. for 24 hours before stopping oxidization, then was subjected to filtration sterilization, and stored for use.
# 4. Culture of macrophage and establishment of foam cells model (available literature: Jia Yi, Li Xiaohui, Xing Mao, Hei Xuefeng, Liu Ya, He Cuiyao. Studies on affect of various combinations of 3 sorts of monomers in total panax notoginsenosides on formation of mouse macrophage-derived foam cells. Journal of China Pharmacy, 2008, 19 (2), 881-883.)
# each rat were intraperitoneally injected with 2 mL RPMI 1640 culture solution free of serum and phenol red, and it was sacrificed by cervical dislocation after 20 minutes, and was soaked in 75% ethanol for 10 minutes, then rat's belly was cut open, and fluids in abdominal cavity were collected, and centrifugated at 750 r/min for 5 minutes, and then cells were collected, and cells concentrations were adjusted to […] by using RPMI 1640 culture solution which were free of phenol red and comprised 10% Fetal Calf Serum. 10 pieces of 6 wells plate was added 1 mL cells suspension per well, and was placed into an incubator of 5% CO2 at 37 °C, and cultured for two hours, then supernatant was discarded, and nonadhesive cells was washed by using PBS. Original culture medium was discarded. Culture was carried out for 48 hours after adding 5 mL culture medium comprising 20 mg/L ox-LDL, and thereby foam cells were formed.
# […] were divided into ox-LDL model group, pyrrolidine dithiocarbamate (PDTC) (drugs source: Sigma), control group and C-K interference group. Each group had 5 pieces of plates. […]
# Culture solution was aspirated, and lipid in foam cells was extracted by Folch method (reference: Folch J et al, A simple method for the isolation and purification of total lipides from animal tissues. J Biol Chem, 1957, 226 (1): 497-509), according to direction for use of kit.
# Data was expressed as x±s, and variance analysis was carried out between groups by SPSS 13.0 software.
# LXRα mRNA = assay: Real-time quantitative PCR of LXRα mRNA in foam cells; format: cell-based; settings: 25 μM, rat foam cells
# Protocol: FIG. 5 provides effects of a ginsenoside compound K (C-K, 25 μM) and pyrrolidine dithiocarbamate (PDTC, 25 μM) on the foam cell LXRα mRNA expression. a: P<0.05, vs foam cell group. PDTC (25 μM) C-K (25 μM) (n=5).
# as §3
# as §1, with “27 (11):” for “27(11):”
# as §2
# Kunming mice = assay: Primary survey for toxicity in mice (gavage, 14 days); format: in vivo
# Protocol: 40 Kunming mice (weight 18-22 g) were randomly divided into blank group of 20 mice, and ginsenoside compound K group of 20 mice, wherein male and female mice were fifty-fifty in each group. Fasting was carried out before trial for 16 h, allowing mice to freely drink water. Each mouse in drug group was gavaged with ginsenoside compound K (bought from) suspension according to a dose of 400 mg/kg, and blank group was gavaged equivalent amount of distilled water, with administration carried out once a day. Observation was carried out for 14 days after administration, wherein mice were weighted and animal responses were observed each day. The mice were weighted on fourteenth day of the trial, then were sacrificed and dissected, and tissue change of mice's major organs such as heart, liver, spleen, lung, and kidney were observed.
# There was no phenomena such as abnormal crying, tremor, convulsion, dyskinesias, salivation, lacrimation, nose running, respiration difficulty, rapid heartbeat or slow heartbeat, diarrhea, constipation, intestinal tympanites in drug group mice; mice's hair was glossy; No mouse died in 14 days of administration.
smiles,measurement,setting,value
"CC(C)=CCC[C@](C)(OC1OC(CO)C(O)C(O)C1O)C1CC[C@]2(C)C1[C@H](O)CC1[C@@]3(C)CC[C@H](O)C(C)(C)C3CC[C@]12C (stereo partly drawn) [C-K, 20-O-β-D-glucopyranosyl 20-(S)-protopanaxadiol]",change of CD36 mRNA expression in foam cells compared with model group,CD36 mRNA,not obvious
same,expression of perilipin proteins in foam cells compared with model group,perilipin protein,significantly down-regulated
same,expression of perilipin mRNA in foam cells compared with model group,perilipin mRNA,significantly down-regulated
same,expression of ABCA1 mRNA in foam cells compared with model group,ABCA1 mRNA,significantly up-regulated
same,TC and CE amount in foam cells compared with model group,[1]; 25 nM as printed in text,significantly lowered
same,CE in foam cells,"[1]; 25 μM, 48 hours, rat foam cells, x ± s, n = 5, ox-LDL model group 15.24 ± 2.38",28.12 ± 3.12^a
same,CE/TC in foam cells,"[1]; 25 μM, 48 hours, rat foam cells, x ± s, n = 5, ox-LDL model group 59.56 ± 2.96",47.01 ± 3.80^a %
same,TC in foam cells,"[1]; 25 μM, 48 hours, rat foam cells, x ± s, n = 5, ox-LDL model group 87.20 ± 2.19",59.72 ± 2.38^a
same,expression of LXRα mRNA in foam cells compared with model group,LXRα mRNA,significantly up-regulated
same,mice's response to acute toxicity,"Kunming mice; Kunming mice, 400 mg/kg gavage",not obvious
same,"time until signs after gavage (eye closed, lying down, reduced autonomic activities, appetite descent) restored normal","Kunming mice; Kunming mice, 400 mg/kg gavage",≤ 2 h
same,death of mice in 14 days of administration,"Kunming mice; Kunming mice, 400 mg/kg gavage once a day, 14 days",No mouse died
same,organs observed by naked eye after dissection,"Kunming mice; mouse, in vivo, 400 mg/kg",no abnormality in each organ
